Assay results as given in patent US20080293644A1, “GUAVA EXTRACT” (priority 2007, published 2008).
pIC50: −log10 of the molar value. Blank lines part the entries; values can stand above or below the compound they belong to.

How the values were obtained:
DP-IV = target: T1, DP-IV (Homo sapiens, UniProt P27487); experiment: DP-IV activity colorimetric assay (Gly-Pro-4-NA hydrolysis, 405 nm) in human plasma; assay type: biochemical; details: for %-Inhibition DP-IV / inhibition at 100000 µM: unspecific enzyme inhibitors and solvents at 100 mM
T1 construct: DP-IV also exists as a soluble circulating form in plasma; from tissue; host or cells: human plasma
T1 sequence (P27487 39-766 limits assumed): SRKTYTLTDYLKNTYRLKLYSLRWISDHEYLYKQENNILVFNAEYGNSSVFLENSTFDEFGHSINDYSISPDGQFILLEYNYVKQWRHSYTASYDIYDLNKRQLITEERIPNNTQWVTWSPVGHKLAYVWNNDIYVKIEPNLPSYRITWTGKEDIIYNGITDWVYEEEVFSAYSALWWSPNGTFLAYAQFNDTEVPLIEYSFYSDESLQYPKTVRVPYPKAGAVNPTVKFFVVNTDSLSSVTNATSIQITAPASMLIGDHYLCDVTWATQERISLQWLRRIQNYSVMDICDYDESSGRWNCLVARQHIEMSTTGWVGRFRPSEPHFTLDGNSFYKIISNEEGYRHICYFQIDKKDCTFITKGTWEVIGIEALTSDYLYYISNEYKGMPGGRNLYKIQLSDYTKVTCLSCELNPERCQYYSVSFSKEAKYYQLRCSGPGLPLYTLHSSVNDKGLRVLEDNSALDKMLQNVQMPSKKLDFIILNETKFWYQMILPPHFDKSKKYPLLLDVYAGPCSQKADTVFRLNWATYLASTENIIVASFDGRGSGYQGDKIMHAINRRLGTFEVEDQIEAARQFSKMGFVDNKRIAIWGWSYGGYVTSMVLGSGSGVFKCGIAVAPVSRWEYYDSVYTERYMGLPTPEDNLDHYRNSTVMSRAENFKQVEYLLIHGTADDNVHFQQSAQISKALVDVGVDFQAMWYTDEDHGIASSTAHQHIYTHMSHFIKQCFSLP
Description: DP-IV activity was measured by a colorimetric assay.
400 μL assay buffer (9.5 g HEPES/l distilled water, pH adjusted to 7.0, product number H4034, Sigma, St. Louis, Mo.), 150 μL human plasma and 100 μL inhibitor solution (or solvent) were transferred into a photometer cuvette, gently mixed and pre-incubated at 37° C. for 3 minutes. The assay was then started by addition of 70 μL substrate solution (8.6 mg Gly-Pro-4-NA in 10 ml assay buffer).
DP-IV activity is expressed as the linear change in optical density over 20 min (Δ Abs/min).
Full inhibition (100%) indicated no apparent increase in absorption.
100% activity in a test sample indicated the same increase in absorption compared in a sample with no inhibitor. Zero activity (0%) indicated no apparent increase in absorption.

CaCO2 cells = experiment: Absorption (uptake) of quercetin-glycosides in CaCO2 cells; assay type: in vitro ADME; details: 60 minutes; for % uptake by CaCO2 cells (% of flavonol-glycosides present in incubation media): 2 g guava extract/100 ml incubation media, 37° C., mean of 5 incubations
Description: Incubation conditions: 37° C. for 60 minutes (5 replicate incubations)
Data evaluation: Ratio of peak areas of individual flavonol-glycosides obtained from HPLC analysis of incubation media (immediately after preparation and after 60 minutes of incubation) and the cell content.
Cells were grown in 75 cm^2 culture-flasks (T75) and subcultured after one week (every other day washed with PBS buffer, removed with trypsin and transferred to an new culture flask).
7 to 8 days until confluency was reached. The cells were washed with PBS buffer and incubated with the flavonol for 60 minutes.
After the corresponding incubation time, 900 μl of incubation medium used was taken from each well and mixed with 100 μl formic acid. The cells were washed with PBS buffer and removed using 1 ml of 10% formic acid. Cells were sonicated 3 times for 30 seconds, centrifuged for 10 minutes and the pellets were discarded. The supernatant was used as sample for HPLC.

[1] = Stability of individual flavonol-glycosides during incubation conditions; assay type: physicochemical; details: 2 g extract (Example 2)/100 ml incubation media

pIC50 (DP-IV; concentration yielding a DP-IV inhibition of around 50%, human plasma, 70-280 μg/ml tested): 3.32 to 3.49
DP-IV inhibition (in words) (DP-IV; human plasma): clear, dose dependent inhibition
concentration yielding a DP-IV inhibition of around 50% (DP-IV; human plasma, read from dose/response curve): 100-150 μg/assay volume
inhibition of DP-IV (DP-IV; sample adjusted to contain 180 μg guaijaverin/ml test assay, human plasma (FIG. 6)): 50%
absorption ranking in CaCO2 cells (in words) (CaCO2 cells; 2 g guava extract/100 ml): best absorption
Structure (SMILES): O=c1c(O[C@@H]2OC[C@H](O)[C@H](O)[C@H]2O)c(-c2ccc(O)c(O)c2)oc2cc(O)cc(O)c12 [guaijaverin, quercetin-3-O-alpha-L-arabinopyranoside]

%-Inhibition DP-IV (DP-IV; human plasma): 10.0%
Structure (SMILES): Cn1ccnc1S [Methimazol]

Structure (SMILES): O=C(O)CN(CCN(CC(=O)O)CC(=O)O)CC(=O)O [EDTA]
%-Inhibition DP-IV (DP-IV; human plasma): 24.0%

%-Inhibition DP-IV (DP-IV; human plasma): 75.3%
Structure (SMILES): C[S+](C)[O-] [DMSO]

%-Inhibition DP-IV (DP-IV; human plasma): 15.3%
Structure (SMILES): OCCS [Mercaptoethanol]

%-Inhibition DP-IV (DP-IV; human plasma): 19.3%
Structure (SMILES): [Zn+2] [Zinc^++]

Structure (SMILES): C[CH2][Hg][S]c1ccccc1C(=O)[O-].[Na+] [Thimerosal]
%-Inhibition DP-IV (DP-IV; human plasma): <1.0%

Stability 60 min. at 37° C., pH = 7 [1]: 98.2 % from time = 0
% uptake by CaCO2 cells (% of flavonol-glycosides present in incubation media) (CaCO2 cells): 4.5%
Structure (SMILES): O=c1c(O[C@@H]2O[C@H](CO)[C@@H](O)[C@H](O)[C@H]2O)c(-c2ccc(O)c(O)c2)oc2cc(O)cc(O)c12 [compound 4]

pIC50 (DP-IV; Concentration for 50% inhibition of DPIV, isolated flavonol-glycosides tested at 100-500 μg/ml, estimated): 3.40
Stability 60 min. at 37° C., pH = 7 [1]: 98.0 % from time = 0
% uptake by CaCO2 cells (% of flavonol-glycosides present in incubation media) (CaCO2 cells): 5.3%
Structure (SMILES): O=c1c(O[C@@H]2OC[C@H](O)[C@H](O)[C@H]2O)c(-c2ccc(O)c(O)c2)oc2cc(O)cc(O)c12 [compound 6]

Structure (SMILES): CO [Methanol]
inhibition at 100000 µM (DP-IV; human plasma): 59.7%

inhibition at 100000 µM (DP-IV; human plasma): 52.8%
Structure (SMILES): CCO [Ethanol]

%-Inhibition DP-IV (DP-IV; human plasma): 19.0%
Structure (SMILES): Cl.NCCN [Ethylendiamine•HCl]
